Results on four compounds are retold here after patent EP0147194B1 (Hosobuchi, Yoshio, priority 1983, dated 1989).

Experiment [1] has as its system neurologic deficits secondary to cerebral ischemia. As to conditions: cited from earlier work.
The subject of experiment [2] is neurologic deficits produced by unilateral carotid ligation. To be noted: cited from earlier work.
The test system of experiment [3] is acute focal cerebral ischemia. More on the design: species or system cats. As to conditions: in vivo, ip.
Experiment [4] relates to analgesic response. To be noted: cited from earlier work.

Where two headings read alike, the source gives them in different places.

As to `CN1CC[C@]23c4c5ccc(O)c4O[C@H]2[C@@H](O)C=C[C@H]3[C@H]1C5` [morphine], the “neurologic deficits secondary to cerebral ischemia” value in experiment [1] (in vivo) is “exacerbates them”.

Regarding `C=CCN1CC[C@]23c4c5ccc(O)c4O[C@H]2C(=O)CC[C@@]3(O)[C@H]1C5` [naloxone, 17 - allyl - 4,5a - epoxy - 3,14 - dihydroxymorphinan - 6 - one], the “neurologic function and infarct size” value in experiment [2] (gerbils, temporary carotid occlusion, Levy et al. (1982)) is “did not produce improved neurologic function or alter infarct size”. The “neurologic deficits produced by unilateral carotid ligation” value in experiment [2] (gerbils, intraperitoneal administration, Science 215:69-71 (1982)) is listed as “can be reversed”. The “survival and neurologic function” value in experiment [2] (several different models of stroke in gerbils, Holaday and D'Amato (1982)) was “no beneficial effect”. Moreover, in experiment [1] (man, Lancet 2:272-275 (1981)), the “neurologic deficits secondary to cerebral ischemia” value is listed as “can reverse neurologic deficits”. Besides, the “prolonging survival (mortality as a function of time following the cerebral artery occlusions)” value in experiment [3] is “prolonged survival”.

Turning to `O=C1CC[C@@]2(O)[C@H]3Cc4ccc(O)c5c4[C@@]2(CCN3CC2CC2)[C@H]1O5` [naltrexone], in experiment [3], the “prolonging survival (mortality as a function of time following the cerebral artery occlusions)” value is given as “prolonged survival”.

Take “Dynorphin: opioid peptide first isolated from pituitary glands; natural compound's full 17 amino acid sequence”: the analgesic potency result in experiment [4] (mice) is reported as “little or no analgesic potency”. For the same compound, the “effect on narcotic analgesia in tolerant animals” value in experiment [4] (morphine-tolerant animals / tolerant hosts) was “potentiates the analgetic effect of both morphine and β-endorphin”. Further, the “effect on narcotic analgesia in naive animals” value in experiment [4] (naive animals, analgesic response to morphine and β-endorphin / narcotic analgesics) is “inhibits, or antagonizes, the analgesic response to both morphine and β-endorphin”.
